Results taken from US20240393694A1, “METAL CONTAINING PHOTORESIST DEVELOPER COMPOSITION, AND METHOD OF FORMING PATTERNS INCLUDING STEP OF DEVELOPING USING THE COMPOSITION” (SAMSUNG SDI CO., LTD., priority 2023, published 2024).

Assay: pKa of the sulfonimide-based compound (Table 1)

pKa	Structure (SMILES)
8.3	O=C1NC(=O)c2ccccc21 [Phthalimide]
9.5	O=C1CCC(=O)N1 [Succimide]
